Broadly, the IC50 is the concentration that inhibits the measured activity by half.

For this assay, the target named is T1, full length PDK1 (Homo sapiens, UniProt O15530).
T1 construct: Full-length human 3-Phosphoinositide Dependent protein Kinase-1; made in house; host or cells: baculovirus / Sf9 insect cells
T1 sequence (O15530 1-556): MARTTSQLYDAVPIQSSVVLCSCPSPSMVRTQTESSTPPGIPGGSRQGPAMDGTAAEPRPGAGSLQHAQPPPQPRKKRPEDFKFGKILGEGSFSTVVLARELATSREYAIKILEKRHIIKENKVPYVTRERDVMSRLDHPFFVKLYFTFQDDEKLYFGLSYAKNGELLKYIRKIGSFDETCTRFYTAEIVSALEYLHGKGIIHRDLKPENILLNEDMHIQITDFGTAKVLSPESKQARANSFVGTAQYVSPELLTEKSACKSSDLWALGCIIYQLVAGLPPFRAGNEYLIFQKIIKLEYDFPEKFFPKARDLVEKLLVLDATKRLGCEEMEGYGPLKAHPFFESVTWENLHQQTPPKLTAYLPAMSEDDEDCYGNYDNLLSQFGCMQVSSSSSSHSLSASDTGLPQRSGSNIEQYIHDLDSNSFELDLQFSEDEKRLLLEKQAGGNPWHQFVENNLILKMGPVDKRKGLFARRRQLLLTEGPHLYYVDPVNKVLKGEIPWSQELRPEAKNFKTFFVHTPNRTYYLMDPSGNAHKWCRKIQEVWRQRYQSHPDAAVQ
Description: PDK1 enzyme assays (substrate phosphorylation: LEADseeker scintillation proximity, TR-FRET, PDKtide). The format is biochemical. The note with it: in at least one experimental run, read-out: IC50 against full length PDK1. As to the method: Substrate phosphorylation assays are carried out as follows:
Biotinylated-hAKT1: Human AKT1 (containing amino acid residues 136-480, as annotated by National Center for Biotechnology Information (NCBI) accession number AAL55732.1, with a MetLysLysHis6 N-terminal addition) is purified to >90% from lysate of baculovirus expression by Nickel Chelating ProBond resin (InVitrogen), Q-Sepharose Fast Flow, and Superdex 200 size exclusion chromatography. Biotinylation is achieved using EZ-Link Sulfo-NHS-LC Biotin (Pierce). Samples, in 25 mM HEPES, pH 7.5, 200 mM NaCl, 2 mM DTT, and 30% glycerol are stored at −80C until use.
Full-length human 3-Phosphoinositide Dependent protein Kinase-1 (hPDK1; National Center for Biotechnology Information (NCBI) accession number AAH39158.1 with a MetGlyHis6 N-terminal addition) is purified from baculovirus expression in Sf9 cells. Purity of approximately 80% is achieved by the use of chelation chromatography (Ni-NTA Superflow) and desalting columns. Samples, in 25 mM HEPES, 150 mM NaCl, 2.5 mM DTT, 0.05% Triton, 30% glycerol, pH 8.0, are stored at −80° C. until use.
The 39 amino acid biotinylated-PDKtide peptide Seq. ID No. 1: (Biotin-Ahx-[…]) was custom synthesized by 21st Century Biochemicals. […] The concentration was confirmed by quantitative amino acid analysis.
Scintillation Proximity (LEADseeker) Kinase Assay of Purified hPDK1:
Assays are performed in 384-well microtiter plates (Greiner, Catalog No. 784075). The reaction volume (10 μl) contains, in final concentrations, 25 mM MOPS (pH 7.5), 10 mM MgCl2, 50 mM KCl, 0.1 mg/ml BSA, 1 μM ATP, 3 uCi/ml ^33PγATP, 5 mM DTT, 1 mM CHAPS or 0.05% Tween20, 0.35 μM AKT1 biotinylated protein, and 10 nM hPDK1.
Compounds, titrated in DMSO, are evaluated at eleven concentrations ranging from 50 μM to 2 μM. […] Reactions are stopped after 3 hours at room temperature by the addition of 50 mM EDTA, 5 mg/ml LEADseeker beads (GE Healthcare) in PBS (10 ul). Beads are allowed to settle overnight, and samples are imaged on Viewlux (PerkinElmer).
The data for compound concentration responses were plotted as % Inhibition, calculated with the data reduction formula 100*(1−[(U1−C2)/(C1−C2)]), versus concentration of compound, where
Data were fitted to the curve described by:
TR-FRET Kinase Assay of Purified hPDK1:
Assays are performed in 384-well microtiter plates (Greiner, Catalog No. 784076).
As previously described for the Scintillation Proximity protocol, hPDK1 is pre-incubated (30 minutes at room temperature) with compounds before initiating phosphorylation of AKT1 by addition of substrate to the hPDK1 and compound mix. Reactions are stopped after 4-6 hours at room temperature by the addition to final concentrations of 0.02 M EDTA, 0.0875 μM Streptavidin APC (PerkinElmer), 0.03 μM AKT1 (phospho T308) antibody (Abcam Inc.), 0.00375 μM Lance Eu-labeled anti rabbit IgG Antibody (PerkinElmer). Antibody binding reaches equilibrium in 30 minutes before signal is read on an EnVision™ 2103 Multilabel Reader (PerkinElmer). APC Signals are normalized to Europium signal. Data processing is the same as described for the Scintillation Proximity assay with the exception of the generation of the “C2” control by addition of buffer without hPDK1 to control wells at t=0 instead of EDTA.
Scintillation Proximity (LEADseeker) Kinase Assay of Purified hPDK1 using Biotinylated-PDKtide Peptide:
Assays are performed in 384-well microtiter plates (Greiner, Catalog No. 784075). The reaction volume (10 μl) contains, in final concentrations, 25 mM MOPS (pH 7.5), 10 mM MgCl2, 50 mM KCl, 0.1 mg/ml BSA, 1 μM ATP, 3 uCi/ml ^33PγATP, 5 mM DTT, 0.5 mM CHAPS, 1 μM biotinylated-PDKtide peptide, and 0.5 nM hPDK1.
Compounds, titrated in DMSO, are evaluated at eleven concentrations ranging from 25 μM to 0.4 pM. […] Reactions are stopped after 4 hours at room temperature by the addition of 50 mM EDTA, 5 mg/ml LEADseeker beads (GE Healthcare) in PBS (10 ul).
(In a scintillation proximity assay essentially only radioactivity close to the scintillant gives light.)
Consider `Nc1nc(NCc2ccccc2)cc(-c2ccc3c(N)n[nH]c3c2)n1` [Example 2, 6-(3-Amino-1H-indazol-6-yl)-N^4-(phenylmethyl)-2,4-pyrimidinediamine], for which the half-inhibitory concentration (IC50) is below 100 nM.
Under `Nc1nc(NCC2CCCCC2)cc(-c2ccc3c(N)n[nH]c3c2)n1` [Example 38, 6-(3-Amino-1H-indazol-6-yl)-N^4-(cyclohexylmethyl)-2,4-pyrimidinediamine] stands below 100 nM; under `CC[C@@H]1CCCN1c1cc(-c2ccc3c(N)n[nH]c3c2)nc(N)n1` [Example 46, 6-{2-Amino-6-[(2R)-2-ethyl-1-pyrrolidinyl]-4-pyrimidinyl}-1H-indazol-3-amine], below 150 nM.
`Nc1nc(NC2CC2)cc(-c2ccc3c(N)n[nH]c3c2)n1` [Example 51, 6-(3-Amino-1H-indazol-6-yl)-N^4-cyclopropyl-2,4-pyrimidinediamine]: the half-maximal inhibitory concentration (IC50) is below 100 nM.
As to `CCCNc1cc(-c2ccc3c(N)n[nH]c3c2)nc(N)n1` [Example 74, 6-(3-Amino-1H-indazol-6-yl)-N^4-propyl-2,4-pyrimidinediamine], the concentration for half-maximal inhibition (IC50) was below 100 nM.
Next, `CNc1nc(-c2ccc3c(N)n[nH]c3c2)cc(N2C[C@@H](C(=O)NCc3ccccc3)CC[C@H]2C)n1` [Example 80, (3S,6R)-1-[6-(3-Amino-1H-indazol-6-yl)-2-(methylamino)-4-pyrimidinyl]-6-methyl-N-(phenylmethyl)-3-piperidinecarboxamide]: below 20 nM; `CNc1nc(-c2cc(F)c3c(N)n[nH]c3c2)cc(N2C[C@@H](C(=O)NC3CCCCC3)CC[C@H]2C)n1` [Example 85, (3S,6R)-1-[6-(3-Amino-4-fluoro-1H-indazol-6-yl)-2-(methylamino)-4-pyrimidinyl]-N-cyclohexyl-6-methyl-3-piperidinecarboxamide]: below 20 nM; `CC1CCC(NC(=O)OC2CCCC2)CN1c1cc(-c2ccc3c(N)n[nH]c3c2)nc(N)n1` (stereo not drawn) [Example 120, Cis-cyclopentyl{1-[2-amino-6-(3-amino-1H-indazol-6-yl)-4-pyrimidinyl]-6-methyl-3-piperidinyl}carbamate]: below 50 nM.
Take `C[C@@H]1CC[C@H](C(=O)NC2CCCC2)CN1c1cc(-c2ccc3c(N)n[nH]c3c2)nc(N)n1` [Example 142, (3S,6R)-1-[2-amino-6-(3-amino-1H-indazol-6-yl)-4-pyrimidinyl]-N-cyclopentyl-6-methyl-3-piperidinecarboxamide]: the IC50 is below 20 nM.
`C[C@@H]1CC[C@H](C(=O)NCCc2ccccc2)CN1c1cc(-c2ccc3c(N)n[nH]c3c2)nc(N)n1` [Example 149, (3S,6R)-1-[2-Amino-6-(3-amino-1H-indazol-6-yl)-4-pyrimidinyl]-6-methyl-N-(2-phenylethyl)-3-piperidinecarboxamide]: the IC50 is below 20 nM.
With `CC[C@@H]1COCCN1c1cc(-c2cc(NC3CCCC3)c3c(N)n[nH]c3c2)nc(NC)n1` [Example 181, N^4-Cyclopentyl-6-[6-[(3R)-3-ethyl-4-morpholinyl]-2-(methylamino)-4-pyrimidinyl]-1H-indazole-3,4-diamine], the 50% inhibitory concentration (IC50) was below 150 nM.
Take `CCOc1cc(-c2cc(N3CCOC[C@H]3CC)nc(NC)n2)cc2[nH]nc(N)c12` [Example 184, 6-[6-[(3R)-3-Ethyl-4-morpholinyl]-2-(methylamino)-4-pyrimidinyl]-4-(ethyloxy)-1H-indazol-3-amine]: the IC50 was below 150 nM.
Next, `CCOc1cc(-c2cc(N3CCOC[C@H]3C(C)C)nc(N)n2)cc2[nH]nc(N)c12` [Example 199, 6-{2-Amino-6-[(3R)-3-(1-methylethyl)-4-morpholinyl]-4-pyrimidinyl}-4-(ethyloxy)-1H-indazol-3-amine]: below 150 nM; `COc1cc(-c2cc(N3CCOC[C@H]3C)nc(N)n2)cc2[nH]nc(N)c12` [Example 200, 6-{2-Amino-6-[(3R)-3-methyl-4-morpholinyl]-4-pyrimidinyl}-4-(methyloxy)-1H-indazol-3-amine]: below 150 nM; `CNc1nc(-c2cc(OC)c3c(N)n[nH]c3c2)cc(N2CCC[C@@H](NC(=O)OC(C)(C)C)C2)n1` [Example 203, 1,1-Dimethylethyl{(3R)-1-[6-[3-amino-4-(methyloxy)-1H-indazol-6-yl]-2-(methylamino)-4-pyrimidinyl]-3-piperidinyl}carbamate]: below 50 nM.
For the compound `Nc1nc(-c2ccc3c(N)n[nH]c3c2)cc(N2CCC[C@@H](NC(=O)OC3CCC3)C2)n1` [Example 209, Cyclobutyl{(3R)-1-[2-amino-6-(3-amino-1H-indazol-6-yl)-4-pyrimidinyl]-3-piperidinyl}carbamate], the IC50 is below 50 nM.
Turning to `Nc1nc(-c2ccc3c(N)n[nH]c3c2)cc(N2CCC[C@@H](N3CCOC3=O)C2)n1` [Example 211, 3-{(3R)-1-[2-Amino-6-(3-amino-1H-indazol-6-yl)-4-pyrimidinyl]-3-piperidinyl}-1,3-oxazolidin-2-one], the half-inhibitory concentration (IC50) was below 50 nM.
Under `CC(C)OC(=O)N[C@@H]1CCCN(c2cc(-c3ccc4c(N)n[nH]c4c3)nc(N)n2)C1` [Example 217, 1-Methylethyl{(3R)-1-[2-amino-6-(3-amino-1H-indazol-6-yl)-4-pyrimidinyl]-3-piperidinyl}carbamate] stands below 50 nM.

The record behind these values is patent US8697685B2, “Chemical compounds” (GlaxoSmithKline LLC, priority 2008, dated 2014).
